# US10858413B2, “Immunoglobulins and uses thereof” (Janssen Pharmaceutica NV, priority 2016, dated 2020)
# Marks after values point to notes of the source that are not given here.
# What was measured:
# [1] = target: T1, PTHR1 (Homo sapiens, UniProt Q03431); assay: class B GPCR cAMP assay, PTHR1; type: cell-based
# T1 construct: host or cells: cells of an unnamed vendor
# T1 sequence (Q03431 27-593): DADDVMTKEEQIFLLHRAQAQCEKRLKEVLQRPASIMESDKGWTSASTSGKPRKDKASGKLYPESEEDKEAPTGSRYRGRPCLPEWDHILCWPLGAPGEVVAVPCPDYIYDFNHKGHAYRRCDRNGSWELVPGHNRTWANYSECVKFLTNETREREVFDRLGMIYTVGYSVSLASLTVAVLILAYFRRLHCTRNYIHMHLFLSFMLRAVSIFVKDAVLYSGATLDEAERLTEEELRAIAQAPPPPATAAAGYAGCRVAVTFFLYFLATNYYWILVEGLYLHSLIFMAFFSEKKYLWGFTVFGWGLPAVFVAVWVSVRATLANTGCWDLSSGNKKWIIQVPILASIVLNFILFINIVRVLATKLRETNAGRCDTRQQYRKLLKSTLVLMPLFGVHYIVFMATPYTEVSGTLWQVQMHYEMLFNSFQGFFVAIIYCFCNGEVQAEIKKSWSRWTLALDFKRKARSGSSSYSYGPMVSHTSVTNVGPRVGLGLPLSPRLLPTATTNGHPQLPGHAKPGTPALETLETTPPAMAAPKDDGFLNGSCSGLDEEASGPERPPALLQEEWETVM
# Procedure: The assays were performed according to the vendor's standard operating procedures with a positive control included for each receptor tested.
# [2] = tested on: DIO mice; assay: Repeat dosing in DIO mice: daily food intake; type: in vivo, mouse; settings: 0.3 nmol/kg s.c. daily
# Procedure: (§1) To control for the dosing frequency, all animals were dosed daily. Dosing frequency was determined on the basis of DIO mouse PK data for compound 2 and dulaglutide. Animals in the dulaglutide group received this drug daily. The vehicle-treated animals received vehicle daily. […] The day prior to initiating of dosing, animals were weighed and grouped by body weight. […].
# (§2) Beginning 24-hr after the first dosing, three groups of mice were pair-fed (PF) to the 1.0, 2.0, or 4.0 nmol/kg compound 2-treated animals. The amount of food in the hopper of pair-fed mice was adjusted to match the average food consumed in the previous 24 hours by mice in the compound treatment group to which they were being matched. All PF groups were dosed daily with vehicle. On the ninth day (or Day 10 for the pair-fed groups), animals were fasted for 6 hours and body weight and fasting glucose were measured. Blood was collected for measurements of insulin, FGF21 and plasma lipids. The food intake, body weight, body composition, fasting glucose, fasting insulin, fasting FGF21, and fasting plasma lipid data are shown in tables 20-26.
# [3] = Single-dose efficacy in DIO mice: body weight change; settings: single s.c. dose 0.3 nmol/kg, 18 hours after treatment, relative to day 0
# [4] = tested on: DIO mice; assay: Fed blood glucose in DIO mice after 8 days of treatment; type: in vivo, mouse; settings: 0.3 nmol/kg s.c. every day
# Procedure: (§3) Compound 1 was evaluated for its ability to reduce foot intake and body weight and improve glucose homeostasis on repeat dosing in male DIO C57B1/6 mice over a period of 8 days. Male DIO C57BL/6N mice (20 weeks of age, 14 weeks on high fat diet) were obtained from Taconic Laboratory. […] Animals were acclimated to the facility for at least one week prior to the start of the experiment.
# (§4) The day prior to dosing, mice were grouped based on individual body weights. At 3:00-4:00 pm for each of the next 8 days, animals and food intake were weighed. […] After 8 days, mice are fasted for 5 hours and then given a 2 g/kg bolus of glucose orally at t=0. At t=0, 30, 60, 90, and 120 minutes post glucose challenge blood glucose is measured and at t=0, 30, and 90 minutes blood in drawn to measure plasma insulin. […] All data are presented as the mean±SEM (FIGS. 8 and 9, and Tables 5-8).
# [5] = tested on: DIO mice; assay: Single-dose efficacy in DIO mice: food intake; settings: single s.c. dose 0.3 nmol/kg
# [6] = tested on: DIO mice; assay: Single-dose efficacy in DIO mice: plasma FGF21; settings: 26 hours after treatment, single s.c. dose 0.3 nmol/kg
# [7] = tested on: DIO mice; assay: Repeat dosing in DIO mice: fasting glucose, insulin, FGF21, plasma lipids; type: in vivo, mouse; settings: after repeated dosing, 0.3 nmol/kg s.c. daily
# Procedure: as §1, §2
# [8] = tested on: DIO mice; assay: Single-dose efficacy in DIO mice: fasting glucose, IPGTT glucose and insulin; settings: single s.c. dose 0.3 nmol/kg
# [9] = Repeat dosing in DIO mice: body weight change and body composition; type: in vivo, mouse; settings: 0.3 nmol/kg s.c. daily
# Procedure: as §1, §2
# [10] = tested on: DIO mice; assay: OGTT (blood glucose, insulin) in DIO mice after 8 days of treatment; type: in vivo, mouse; settings: 0.3 nmol/kg s.c. every day
# Procedure: as §3, §4
compound,measurement,setting,value
CC[C@H](C)[C@H](NC(=O)[C@H](CCC(=O)O)NC(=O)[C@H](CO)NC(=O)[C@@H](NC(=O)[C@@H](N)CO)C(C)C)C(=O)N[C@@H](CCC(N)=O)C(=O)N[C@@H](CC(C)C)C(=O)N[C@@H](CCSC)C(=O)N[C@@H](Cc1cnc[nH]1)C(=O)N[C@@H](CC(N)=O)C(=O)N[C@@H](CC(C)C)C(=O)NCC(=O)N[C@@H](CCCCN)C(=O)N[C@@H](Cc1cnc[nH]1)C(=O)N[C@@H](CC(C)C)C(=O)N[C@@H](CC(N)=O)C(=O)N[C@@H](CO)C(=O)N[C@@H](CCSC)C(=O)N[C@@H](CCC(=O)O)C(=O)N[C@@H](CCCNC(=N)N)C(=O)N[C@H](C(=O)N[C@@H](CCC(=O)O)C(=O)N[C@@H](Cc1c[nH]c2ccccc12)C(=O)N[C@@H](CC(C)C)C(=O)N[C@@H](CCCNC(=N)N)C(=O)N[C@@H](CCCCN)C(=O)N[C@@H](CCCCN)C(=O)N[C@@H](CC(C)C)C(=O)N[C@@H](CCC(N)=O)C(=O)N[C@@H](CC(=O)O)C(=O)N[C@H](C(=O)N[C@@H](Cc1cnc[nH]1)C(=O)N[C@@H](CC(N)=O)C(=O)N[C@@H](Cc1ccccc1)C(=O)O)C(C)C)C(C)C [PTH(1-34)],Curve Bottom,[1],−5.9767
same,Curve Top,[1],101
same,Hill,[1],1.8672
Dulaglutide: GLP1R agonist (long-acting GLP-1 receptor agonist) [reference compound],daily food intake,[2]; day 0,3.1 ± 0.2 grams
same,daily food intake,[2]; day 1,1.5 ± 0.2 grams
same,daily food intake,[2]; day 2,1.3 ± 0.2 grams
same,daily food intake,[2]; day 3,1.7 ± 0.3 grams
same,daily food intake,[2]; day 4,1.9 ± 0.2 grams
same,daily food intake,[2]; day 5,2.1 ± 0.2 grams
same,daily food intake,[2]; day 6,2.2 ± 0.2 grams
same,daily food intake,[2]; day 7,2.3 ± 0.2 grams
same,daily food intake,[2]; day 8,2.9 ± 0.4 grams
same,daily food intake,[2]; day 9,2.5 ± 0.2 grams
same,Weight Change (%),[3],−4.1 ± 0.3 %
same,fed Blood Glucose,[4],114 ± 13 mg/dL
same,food intake,[5]; 18 hours post-dose,1.5 ± 0.1*^ grams
same,food intake,[5]; 24 hours pre-dose,3.1 ± 0.1 grams
same,Plasma FGF21,[6],0.8 ± 0.2 ng/mL
same,6 hour fasting Blood Glucose,[7],123 ± 5 mg/dL
same,6 hour fasting Plasma Insulin,[7],1.4 ± 0.2 ng/mL
same,6 hour fasting plasma FGF21,[7],0.5 ± 0.1 ng/mL
same,plasma Free Fatty Acids,[7],73.2 ± 12.0 µmol/L
same,plasma Free Glycerol,[7],0.5 ± 0.1 mmol/L
same,plasma Total cholesterol,[7],146.1 ± 3.3 mg/dL
same,plasma Tri-glycerides,[7],24.1 ± 2.3 mg/dL
same,6 hour fasting Blood Glucose,[8]; 24 hours after treatment,140 ± 7 mg/dL
same,Blood Glucose Net AUC during an IPGTT,[8]; 24 hours after treatment,8471 ± 1204
same,blood glucose during an IPGTT,"[8]; 24 hours after treatment, 0 min",140 ± 7 mg/dL
same,blood glucose during an IPGTT,"[8]; 24 hours after treatment, 10 min",264 ± 18 mg/dL
same,blood glucose during an IPGTT,"[8]; 24 hours after treatment, 30 min",267 ± 22 mg/dL
same,blood glucose during an IPGTT,"[8]; 24 hours after treatment, 60 min",228 ± 12 mg/dL
same,blood glucose during an IPGTT,"[8]; 24 hours after treatment, 90 min",193 ± 9 mg/dL
same,Plasma Insulin,[8]; 10 minutes post-glucose (IPGTT),1.7 ± 0.2 ng/mL
same,Plasma Insulin,[8]; Pre-glucose (24 hours after treatment),1.6 ± 0.2 ng/mL
same,percent body weight change,"[9]; day 0, relative to day 0",0.0%
same,percent body weight change,"[9]; day 1, relative to day 0",−3.7 ± 0.3%
same,percent body weight change,"[9]; day 2, relative to day 0",−6.2 ± 0.6%
same,percent body weight change,"[9]; day 3, relative to day 0",−7.8 ± 0.8%
same,percent body weight change,"[9]; day 4, relative to day 0",−9.2 ± 0.8%
same,percent body weight change,"[9]; day 5, relative to day 0",−10.1 ± 0.8%
same,percent body weight change,"[9]; day 6, relative to day 0",−10.2 ± 0.8%
same,percent body weight change,"[9]; day 7, relative to day 0",−10.7 ± 1.0%
same,percent body weight change,"[9]; day 8, relative to day 0",−11.1 ± 0.9%
same,percent body weight change,"[9]; day 9, relative to day 0",−13.1 ± 1.1%
same,body composition: Fat Mass,[9]; after repeated dosing,7.6 ± 1.1 g
same,"body composition: Fat, % of Body Weight",[9]; after repeated dosing,22.8 ± 1.2%
same,body composition: Lean Mass,[9]; after repeated dosing,22.1 ± 0.3 g
same,"body composition: Lean, % of Body Weight",[9]; after repeated dosing,61.0 ± 1.7%
same,blood glucose Delta AUC (OGTT),[10],6668 ± 1846 mg/dl/120 min
same,blood glucose Total AUC (OGTT),[10],15758 ± 1054 mg/dl/120 min
same,blood glucose during an OGTT,[10]; 0 min after glucose challenge,76 ± 9 mg/dL
same,insulin during an OGTT,[10]; 0 min after glucose challenge,0.6 ± 0.1 ng/mL
same,blood glucose during an OGTT,[10]; 30 min after glucose challenge,151 ± 14 mg/dL
same,insulin during an OGTT,[10]; 30 min after glucose challenge,1.7 ± 0.2 ng/mL
same,blood glucose during an OGTT,[10]; 60 min after glucose challenge,174 ± 17 mg/dL
same,blood glucose during an OGTT,[10]; 90 min after glucose challenge,104 ± 10 mg/dL
same,insulin during an OGTT,[10]; 90 min after glucose challenge,0.7 ± 0.2 ng/mL
same,blood glucose during an OGTT,[10]; 120 min after glucose challenge,119 ± 9 mg/dL
